For two compounds, IC50 and inhibition results are on record in patent publication US20130096100A1, “DI(ARYLAMINO)ARYL COMPOUND” (ASTELLAS PHARMA INC., priority 2007, published 2013).

The structures appear in SMILES notation.

Broadly, the IC50 is the concentration at which inhibition is half-maximal.

What all share (assay type): biochemical
Assay [1] addresses T1, EML4-ALK fusion protein v1 (Homo sapiens, UniProt Q9UM73, D1529E/I1461V/K1491R).
T1 construct: FLAG (N); made in house
Briefly: Inhibitory activity against the kinase activity of EML4-ALK fusion protein v1 (Test Example 1). Conditions: ATP 100 μM, reaction 1 hour, HTRF KinEASE-TK. The method, then:
EML4-ALK fusion protein v1 (purified from BA/F3 cells expressing EML4-ALK fusion protein v1) was investigated for its phosphorylation activity toward a peptide substrate by using a kinase activity detection kit (HTRF KinEASE-TK; Cisbio Inc.). […] The ATP concentration used was 100 μM. Another reaction solution was prepared to contain the enzyme protein but no test compound (in which the solvent DMSO alone was added at 0.4% in place of the test compound), followed by reaction in the same manner with or without ATP addition. […] The concentration causing 50% inhibition (IC50) was calculated for each test compound by the logistic regression method.
N-terminally FLAG-tagged EML4-ALK fusion protein v1 was inserted into a vector pMX-iresCD8 capable of co-expression of insert cDNA and cell surface antigen CD8 (J. Biol. Chem., 2001, vol. 276, p. 39012-39020) to create a vector FLAG-EML4-ALKv1/pMX-iresCD8 expressing both FLAG-EML4-ALKv1 and CD8. FLAG-EML4-ALKv1/pMX-iresCD8 was used to create a recombinant retrovirus in the same manner as described above and infected into mouse lymphoid cell line BA/F3 cells. Using a magnetic bead reagent for cell separation and a purification column (anti-CD8 monoclonal antibody immobilized on magnetic beads and a MiniMACS purification column; both are products of Miltenyi Biotec Inc.), cell surface CD8-expressing cells were purified conveniently. […] After washing 3 times with PBS, the cells were lysed in a lysis solution (50 mM Tris.HCl (pH 7.4), 150 mM NaCl, 1% Triton X100, 5 mM EDTA, 5 mM EGTA, 1 mM NaVO4, 1 mM DTT and protease inhibitor cocktail complete). The EML4-ALK fusion protein v1 present in the supernatant obtained after centrifugation was purified using ANTI-FLAG M2 Affinity Gel (SIGMA-ALDRICH Inc.) according to the method described in the product information document.
The EML4-ALK fusion protein v1 purified as above was investigated for its phosphorylation activity toward a peptide substrate using a kinase activity detection kit (HTRF KinEASE-TK; Cisbio Inc.). Using TK substrate 1, which was included in the kit, as the substrate, and after adding no ATP or 100 μM ATP, the mixtures were reacted at room temperature for 1 hour, and the count of HTRF was detected as recommended by the Kits manufacturer.
(In TR-FRET formats the signal depends on donor and acceptor labels being close together.)

A further assay deals with T2, MUSK (Homo sapiens, UniProt O15146).
T2 sequence (O15146 24-869): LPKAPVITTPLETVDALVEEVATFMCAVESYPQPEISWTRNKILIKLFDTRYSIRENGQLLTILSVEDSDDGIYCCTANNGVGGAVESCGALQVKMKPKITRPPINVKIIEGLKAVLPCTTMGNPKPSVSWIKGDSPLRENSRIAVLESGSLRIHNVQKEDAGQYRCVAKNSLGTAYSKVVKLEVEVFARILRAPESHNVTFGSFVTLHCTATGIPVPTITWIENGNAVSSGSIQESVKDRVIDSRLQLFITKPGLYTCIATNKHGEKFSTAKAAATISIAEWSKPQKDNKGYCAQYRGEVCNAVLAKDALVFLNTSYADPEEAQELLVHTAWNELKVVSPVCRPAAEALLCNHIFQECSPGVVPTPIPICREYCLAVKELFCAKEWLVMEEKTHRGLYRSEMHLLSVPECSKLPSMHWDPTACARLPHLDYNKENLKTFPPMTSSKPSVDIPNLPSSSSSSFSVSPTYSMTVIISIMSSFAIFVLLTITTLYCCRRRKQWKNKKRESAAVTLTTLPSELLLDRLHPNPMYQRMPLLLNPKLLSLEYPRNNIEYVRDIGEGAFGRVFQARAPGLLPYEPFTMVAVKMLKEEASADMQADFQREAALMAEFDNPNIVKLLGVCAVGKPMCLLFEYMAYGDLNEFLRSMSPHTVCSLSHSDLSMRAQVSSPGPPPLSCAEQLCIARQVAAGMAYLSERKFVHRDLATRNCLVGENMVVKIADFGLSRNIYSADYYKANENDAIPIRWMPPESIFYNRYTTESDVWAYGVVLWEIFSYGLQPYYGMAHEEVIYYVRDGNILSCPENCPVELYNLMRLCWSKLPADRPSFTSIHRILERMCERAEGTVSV
Briefly: Kinase inhibition profiling, MUSK (Test Example 6). As to conditions: 100 nM; read-out: inhibitory activity against MUSK. The arrangement: purchased Carna Biosciences Inc., Japan (contract measurement).

The target of the next assay is T3, MNK2 (Homo sapiens, UniProt Q9HBH9).
T3 construct: purchased Carna Biosciences Inc., Japan (contract measurement)
Briefly: Kinase inhibition profiling, MNK2 (Test Example 6). As to conditions: 100 nM; read-out: inhibitory activity against MNK2.

T1 sequence (Q9UM73 with tags, fused parts or gaps I1461V/K1491R/D1529E): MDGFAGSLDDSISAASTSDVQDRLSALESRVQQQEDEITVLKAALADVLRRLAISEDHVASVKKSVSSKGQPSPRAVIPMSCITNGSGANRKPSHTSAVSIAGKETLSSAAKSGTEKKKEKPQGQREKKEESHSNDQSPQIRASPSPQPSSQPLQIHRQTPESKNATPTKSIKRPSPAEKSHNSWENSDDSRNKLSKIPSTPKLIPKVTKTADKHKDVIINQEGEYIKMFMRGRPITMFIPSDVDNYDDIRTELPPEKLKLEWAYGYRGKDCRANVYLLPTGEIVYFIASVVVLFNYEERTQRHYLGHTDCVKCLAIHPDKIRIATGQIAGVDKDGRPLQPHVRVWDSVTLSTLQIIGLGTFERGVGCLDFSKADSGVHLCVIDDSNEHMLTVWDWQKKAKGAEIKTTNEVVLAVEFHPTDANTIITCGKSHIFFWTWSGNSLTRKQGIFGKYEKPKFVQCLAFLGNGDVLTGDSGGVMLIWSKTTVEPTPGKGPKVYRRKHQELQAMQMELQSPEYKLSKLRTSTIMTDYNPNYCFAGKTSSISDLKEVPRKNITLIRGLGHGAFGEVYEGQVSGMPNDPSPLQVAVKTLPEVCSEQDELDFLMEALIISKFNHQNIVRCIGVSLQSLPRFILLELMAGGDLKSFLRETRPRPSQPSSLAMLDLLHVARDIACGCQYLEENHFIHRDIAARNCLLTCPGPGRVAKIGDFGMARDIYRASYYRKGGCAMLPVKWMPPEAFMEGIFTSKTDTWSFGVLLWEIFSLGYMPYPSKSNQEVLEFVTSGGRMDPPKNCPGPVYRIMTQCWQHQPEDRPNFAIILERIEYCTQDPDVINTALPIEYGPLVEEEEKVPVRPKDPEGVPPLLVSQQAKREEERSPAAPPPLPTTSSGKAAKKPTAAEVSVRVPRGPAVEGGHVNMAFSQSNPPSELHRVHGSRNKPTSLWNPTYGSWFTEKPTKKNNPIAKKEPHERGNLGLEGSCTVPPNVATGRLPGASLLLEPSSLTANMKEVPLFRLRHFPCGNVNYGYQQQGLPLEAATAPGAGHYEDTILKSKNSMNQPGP
T3 sequence (Q9HBH9 whole entry): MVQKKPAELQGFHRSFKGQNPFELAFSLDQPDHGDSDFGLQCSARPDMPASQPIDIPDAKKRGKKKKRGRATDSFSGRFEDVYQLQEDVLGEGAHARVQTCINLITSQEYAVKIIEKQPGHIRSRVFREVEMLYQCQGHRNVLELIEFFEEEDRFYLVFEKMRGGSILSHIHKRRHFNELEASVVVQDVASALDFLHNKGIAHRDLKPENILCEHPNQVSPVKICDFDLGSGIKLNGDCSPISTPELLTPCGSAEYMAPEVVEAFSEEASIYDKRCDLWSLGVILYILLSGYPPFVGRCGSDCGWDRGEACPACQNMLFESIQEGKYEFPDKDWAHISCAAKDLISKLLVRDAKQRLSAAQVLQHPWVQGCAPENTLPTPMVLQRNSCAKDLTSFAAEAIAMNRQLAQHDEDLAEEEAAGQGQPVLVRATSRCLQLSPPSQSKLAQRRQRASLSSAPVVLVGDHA

Consider `COc1cc(N2CCC(N3CCN(C)CC3)CC2)ccc1Nc1ncnc(Nc2ccccc2S(=O)(=O)C(C)C)n1` [Example 23], for which the concentration for half-maximal inhibition (IC50) in assay [1] was found to be 0.017 µM. Further, the values for the inhibition at 0.1 µM on MUSK and at MNK2 were under 20% and 80%, respectively.
Take `CCNS(=O)(=O)c1ccccc1Nc1ncnc(Nc2ccc(N3CCC(N4CCN(C)CC4)CC3)cc2OC)n1` [Example 123]: in assay [1], the IC50 is 0.033 µM.
